ChEMBL document CHEMBL1201862, “PubChem BioAssay data set” (2004)
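All cell lines were grown in 96-well plates and treated with compound for 48 hours. GI50 = concentration required for 50% inhibition of growth.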 Activity calls are given as the source filed them. No stated cut-off is given here; in the data, active = GI50 up to about 1.1 µM and inactive = higher.

What was measured:
Experiment in all cases: NCI-60 cell line screen, 48 h
[1] = system: CCRF-CEM
[2] = system: 786-0
[3] = system: OVCAR-4
[4] = system: EKVX
[5] = system: HOP-62
[6] = system: SF-295
[7] = system: A549
[8] = system: SW-620
[9] = system: Malme-3M
[10] = system: NCI-H226
[11] = system: COLO 205
[12] = system: U-251
[13] = system: UO-31
[14] = system: UACC-257
[15] = system: SR
[16] = system: OVCAR-8
[17] = system: NCI-H460

Measured: GI50

CNS(=O)(=O)NN(C)S(=O)(=O)c1ccc(Br)cc1
inactive: [1] > 100 µM | [2] > 100 µM | [3] > 100 µM | [4] > 100 µM | [5] > 100 µM | [6] > 100 µM | [7] > 100 µM | [8] > 100 µM | [9] > 100 µM | [10] > 100 µM | [11] > 100 µM | [12] 72.9 µM | [13] > 100 µM | [14] > 100 µM | [15] > 100 µM | [16] > 100 µM

O=C(O)CCSC(=O)Nc1ccc(/N=N/c2ccccc2)cc1
inactive: [1] 62.5 µM | [2] > 100 µM | [3] 95.1 µM | [4] 74 µM | [5] > 100 µM | [17] > 100 µM | [6] 64 µM | [7] > 100 µM | [8] > 100 µM | [9] > 100 µM | [10] > 100 µM | [11] > 100 µM | [12] 64.6 µM | [13] 55.3 µM | [14] > 100 µM | [15] 37.9 µM | [16] 61.1 µM

CCOC(=O)C1=C(O)C(=O)c2cc(C)ccc2C1=O
inactive: [1] > 100 µM | [2] > 100 µM | [3] > 100 µM | [4] > 100 µM | [5] 63.4 µM | [17] > 100 µM | [6] 54.3 µM | [7] 39.4 µM | [8] > 100 µM | [9] 65.3 µM | [10] 22.2 µM | [11] 49.8 µM | [12] > 100 µM | [13] > 100 µM | [14] 48 µM | [15] > 100 µM | [16] > 100 µM

Cc1c(C(=O)CSc2nc3cc([N+](=O)[O-])ccc3[nH]2)c(=O)n(-c2ccccc2)n1C
inactive: [1] > 100 µM | [2] > 100 µM | [3] > 100 µM | [5] > 100 µM | [17] > 100 µM | [6] > 100 µM | [7] > 100 µM | [8] > 100 µM | [9] 49.7 µM | [10] > 100 µM | [11] > 100 µM | [12] > 100 µM | [13] > 100 µM | [14] > 100 µM | [15] > 100 µM | [16] > 100 µM

CCOP(=O)(OCC)/C(C#N)=C\c1ccc(OC(C)=O)cc1
inactive: [1] > 100 µM | [2] > 100 µM | [3] > 100 µM | [4] > 100 µM | [5] > 100 µM | [17] > 100 µM | [6] > 100 µM | [7] > 100 µM | [8] > 100 µM | [9] > 100 µM | [10] > 100 µM | [11] > 100 µM | [12] > 100 µM | [13] > 100 µM | [14] > 100 µM | [15] > 100 µM | [16] > 100 µM

COc1cc(NCC(C#N)C#N)ccc1/N=N/c1ccc([N+](=O)[O-])cc1
inactive: [1] > 100 µM | [2] > 100 µM | [3] > 100 µM | [4] > 100 µM | [5] > 100 µM | [17] > 100 µM | [6] > 100 µM | [7] > 100 µM | [8] > 100 µM | [9] > 100 µM | [10] > 100 µM | [11] > 100 µM | [12] > 100 µM | [13] > 100 µM | [14] > 100 µM | [15] 49.5 µM | [16] > 100 µM

O=C1CC2(C[C@@H]3CCCCCCCCC[C@@H](C3)C2)N1 (some centres undefined)
inactive: [1] 17.5 µM | [2] 16.1 µM | [3] 17.9 µM | [4] 14.4 µM | [5] 17.1 µM | [17] 16.6 µM | [6] 17 µM | [7] 21.8 µM | [8] 18.7 µM | [9] 11.8 µM | [10] 14.3 µM | [11] 16.7 µM | [12] 16.6 µM | [13] 14.4 µM | [14] 12.2 µM | [15] 10.8 µM | [16] 17.5 µM

O=C1O[B-](c2ccccc2)(c2ccccc2)[NH2+]C1CS (centres undefined)
inactive: [1] 17.7 µM | [2] 21.4 µM | [3] 47.2 µM | [4] > 100 µM | [5] > 100 µM | [17] 66.1 µM | [6] > 100 µM | [7] 92.3 µM | [8] 24.5 µM | [9] 38.2 µM | [10] 68.4 µM | [11] 33.4 µM | [12] 63.5 µM | [13] 52.2 µM | [14] 66.1 µM | [15] 28.8 µM | [16] > 100 µM
